Several values for one entry are separate records, joined by “and”; a condition that tells them apart may be missing. Identical values can stand only once. Inconclusive results and toxic doses are left out. Bridge positions count the residues as written; N and C are the ends. Square brackets hold non-standard residues; d marks the D form. Peptide text beside a SMILES is read from it. I, II: the chains in the order shown. * marks the point of attachment. Quinoxaline2carbonyl = O=C(c1cnc2ccccc2n1)*; NMeV = CN[CH](C(=O)O)C(C)C; NMeC = CN[CH](CS)C(=O)O

From PubChem BioAssay AID192 (DTP/NCI, 2004) come the findings set out here.

This assay relates to BDF1 mice, B16 melanoma ip, median survival T/C. The assay is described as follows: NCI In Vivo Anticancer Drug Screen. Data for tumor model B16 Melanoma (intraperitoneal) in B6D2F1 (BDF1) mice. To be noted: endpoint: median survival time, higher = longer survival. Put shortly: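 The ratio T/C compares compound-treated mice with vehicle-treated controls, using survival or tumor size as the endpoint in a transplantable tumor model.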

Turning to `O=P1(N(CCCl)CCCl)NCCCO1` (configuration not stated), the T/C by setting is: (dose: 2.5 mg/kg/injection, schedule: Q01DX009 (ip), vehicle: saline) 102 % of control; (dose: 5.0 mg/kg/injection, schedule: Q01DX009 (ip), vehicle: saline) 100 % of control; (dose: 6.25 mg/kg/injection, schedule: Q01DX017 (ip), vehicle: saline) 110 % of control; (dose: 6.25 mg/kg/injection, schedule: Q02DX009 (ip), vehicle: saline) 107 % of control and 108 % of control; (dose: 10.0 mg/kg/injection, schedule: Q01DX005 (ip), vehicle: water) 100 % of control; (dose: 10.0 mg/kg/injection, schedule: Q01DX009 (ip), vehicle: saline) 102 % of control. Moreover, the T/C was 111 % of control (dose: 10.0 mg/kg/injection, schedule: Q01DX009 (ip), vehicle: water); 114 % of control (dose: 10.0 mg/kg/injection, schedule: Q04DX003 (ip), vehicle: saline); 105 % of control (dose: 12.0 mg/kg/injection, schedule: Q01DX009 (ip), vehicle: saline); 104 % of control (dose: 12.5 mg/kg/injection, schedule: Q01DX009 (ip), vehicle: water); 107 % of control (dose: 12.5 mg/kg/injection, schedule: Q02DX009 (ip), vehicle: saline); 107 % of control (dose: 15.0 mg/kg/injection, schedule: Q04DX003 (ip), vehicle: saline). For the same compound, the T/C was 111 % of control (dose: 20.0 mg/kg/injection, schedule: Q01DX005 (ip), vehicle: water); 112 % of control (dose: 20.0 mg/kg/injection, schedule: Q01DX009 (ip), vehicle: saline); 120 % of control (dose: 20.0 mg/kg/injection, schedule: Q04DX003 (ip), vehicle: saline); 103 % of control (dose: 25.0 mg/kg/injection, schedule: Q01DX001 (ip), vehicle: saline); 107 % of control (dose: 25.0 mg/kg/injection, schedule: Q01DX009 (ip), vehicle: Klucel (hydroxypropylcellulose) (HPC)); 112 % of control (dose: 25.0 mg/kg/injection, schedule: Q01DX009 (ip), vehicle: saline with Tween-80). In addition, the T/C is, setting by setting: (dose: 25.0 mg/kg/injection, schedule: Q01DX017 (ip), vehicle: saline) 150 % of control; (dose: 25.0 mg/kg/injection, schedule: Q02DX009 (ip), vehicle: saline) 114 % of control and 122 % of control and 123 % of control; (dose: 25.0 mg/kg/injection, schedule: Q04DX003 (ip), vehicle: saline) 119 % of control and 122 % of control; (dose: 25.0 mg/kg/injection, schedule: Q08DX002 (ip), vehicle: saline) 117 % of control; (dose: 30.0 mg/kg/injection, schedule: Q01DX009 (ip), vehicle: water) 161 % of control; (dose: 30.0 mg/kg/injection, schedule: Q04DX003 (ip), vehicle: saline) 114 % of control. In addition, the T/C (dose: 38.9 mg/kg/injection, schedule: Q08DX002 (ip), vehicle: saline) was 116 % of control; the T/C (dose: 40.0 mg/kg/injection, schedule: Q01DX005 (ip), vehicle: water) is 122 % of control; the T/C (dose: 40.0 mg/kg/injection, schedule: Q01DX009 (ip), vehicle: water) is 172 % of control; the T/C (dose: 40.0 mg/kg/injection, schedule: Q04DX003 (ip), vehicle: saline) was 124 % of control; the T/C (dose: 41.5 mg/kg/injection, schedule: Q04DX003 (ip), vehicle: saline) is 120 % of control; the T/C (dose: 50.0 mg/kg/injection, schedule: Q01DX009 (ip), vehicle: water) was 159 % of control and 180 % of control. Besides, the T/C reads like this: (dose: 50.0 mg/kg/injection, schedule: Q01DX017 (ip), vehicle: saline) 110 % of control; (dose: 50.0 mg/kg/injection, schedule: Q04DX003 (ip), vehicle: saline) 124 % of control; (dose: 50.0 mg/kg/injection, schedule: Q04DX005 (ip), vehicle: saline) 162 % of control; (dose: 60.0 mg/kg/injection, schedule: Q01DX005 (ip), vehicle: water) 169 % of control; (dose: 72.0 mg/kg/injection, schedule: Q01DX001 (ip), vehicle: saline) 110 % of control; (dose: 75.0 mg/kg/injection, schedule: Q01DX001 (ip), vehicle: Klucel (hydroxypropylcellulose) (HPC)) 156 % of control. For the same compound, the T/C (dose: 80.0 mg/kg/injection, schedule: Q04DX003 (ip), vehicle: saline) was 159 % of control; the T/C (dose: 93.3 mg/kg/injection, schedule: Q04DX003 (ip), vehicle: saline) is 169 % of control; the T/C (dose: 100.0 mg/kg/injection, schedule: Q01DX009 (ip), vehicle: Klucel (hydroxypropylcellulose) (HPC)) was 117 % of control; the T/C (dose: 100.0 mg/kg/injection, schedule: Q01DX009 (ip), vehicle: saline with Tween-80) is 103 % of control and 117 % of control; the T/C (dose: 100.0 mg/kg/injection, schedule: Q02DX009 (ip), vehicle: saline) is 91 % of control and 112 % of control; the T/C (dose: 100.0 mg/kg/injection, schedule: Q04DX005 (ip), vehicle: saline) is 105 % of control. Moreover, the T/C by setting is: (dose: 100.0 mg/kg/injection, schedule: Q08DX003 (ip), vehicle: saline) 166 % of control; (dose: 108.0 mg/kg/injection, schedule: Q08DX002 (ip), vehicle: saline) 161 % of control; (dose: 120.0 mg/kg/injection, schedule: Q01DX001 (ip), vehicle: saline) 124 % of control; (dose: 120.0 mg/kg/injection, schedule: Q04DX003 (ip), vehicle: saline) 163 % of control; (dose: 140.0 mg/kg/injection, schedule: Q04DX003 (ip), vehicle: saline) 169 % of control; (dose: 160.0 mg/kg/injection, schedule: Q04DX003 (ip), vehicle: saline) 191 % of control. The T/C reads like this: (dose: 180.0 mg/kg/injection, schedule: Q08DX002 (ip), vehicle: saline) 192 % of control; (dose: 200.0 mg/kg/injection, schedule: Q01DX001 (ip), vehicle: water) 121 % of control; (dose: 200.0 mg/kg/injection, schedule: Q04DX003 (ip), vehicle: saline) 111 % of control; (dose: 210.0 mg/kg/injection, schedule: Q04DX003 (ip), vehicle: saline) 205 % of control; (dose: 300.0 mg/kg/injection, schedule: Q01DX001 (ip), vehicle: Klucel (hydroxypropylcellulose) (HPC)) 100 % of control; (dose: 300.0 mg/kg/injection, schedule: Q08DX002 (ip), vehicle: saline) 117 % of control and 220 % of control and 226 % of control. Further, the T/C (dose: 333.0 mg/kg/injection, schedule: Q01DX001 (ip), vehicle: saline) is 155 % of control.
Consider `CC(C)=CCC/C(C)=C/CNCCc1c[nH]c2ccccc12`, for which the T/C by setting is: (dose: 6.25 mg/kg/injection, schedule: Q01DX009 (ip), vehicle: Klucel (hydroxypropylcellulose) (HPC)) 107 % of control; (dose: 12.5 mg/kg/injection, schedule: Q01DX009 (ip), vehicle: Klucel (hydroxypropylcellulose) (HPC)) 111 % of control.
In the case of `CCCC(=O)Nc1ncnc2c1ncn2C1OC2COP(=O)(O)OC2C1OC(=O)CCC` (configuration not stated), the T/C reads like this: (dose: 50.0 mg/kg/injection, schedule: Q01DX009 (ip), vehicle: saline) 100 % of control; (dose: 100.0 mg/kg/injection, schedule: Q01DX009 (ip), vehicle: saline) 94 % of control; (dose: 200.0 mg/kg/injection, schedule: Q01DX009 (ip), vehicle: saline) 89 % of control.
Turning to `CC1NC(=O)C(NC(=O)c2cnc3ccccc3n2)COC(=O)C(C(C)C)N(C)C(=O)C2CSSCC(C(=O)N(C)C(C(C)C)C(=O)OCC(NC(=O)c3cnc4ccccc4n3)C(=O)NC(C)C(=O)N2C)N(C)C1=O` (configuration not stated) (I: Quinoxaline2carbonyl-SA[NMeC][NMeV] / II: Quinoxaline2carbonyl-SA[NMeC][NMeV]; ester I:1-II:C, I:C-II:1; disulfide I:3-II:3; configuration not given here), the T/C reads like this: (dose: 3.0 micrograms/kg/injection, schedule: Q01DX009 (ip), vehicle: Klucel (hydroxypropylcellulose) (HPC)) 111 % of control; (dose: 6.0 micrograms/kg/injection, schedule: Q01DX009 (ip), vehicle: Klucel (hydroxypropylcellulose) (HPC)) 122 % of control; (dose: 22.5 micrograms/kg/injection, schedule: Q01DX009 (ip), vehicle: Klucel (hydroxypropylcellulose) (HPC)) 169 % of control; (dose: 24.0 micrograms/kg/injection, schedule: Q01DX009 (ip), vehicle: Klucel (hydroxypropylcellulose) (HPC)) 151 % of control; (dose: 45.0 micrograms/kg/injection, schedule: Q01DX009 (ip), vehicle: Klucel (hydroxypropylcellulose) (HPC)) 187 % of control; (dose: 48.0 micrograms/kg/injection, schedule: Q01DX009 (ip), vehicle: Klucel (hydroxypropylcellulose) (HPC)) 161 % of control. The T/C (dose: 96.0 micrograms/kg/injection, schedule: Q01DX009 (ip), vehicle: Klucel (hydroxypropylcellulose) (HPC)) is 188 % of control.
